Experimental findings from patent US20220401385A1, “Combination Therapy Based on PD-1 Signaling Inhibitors” (Kyoto University, priority 2019, published 2022) are described below.

Entries after “also recorded” stand apart in the source; their conditions may differ.

One assay concerns CD8+ T cells. Nature of the assay: Proliferation (3H uptake) of spleen CD8+ T cells of treated aged mice. Type of assay: in vivo. The note with it: 56-week old mice; SPD combination group; 20 hours CD3/CD28, 3H uptake. Here is the method:
FIG. 7 MC38 cells (5×10^5) were intradermally inoculated into 56-week old mice, which were treated along with the treatment schedule described in FIG. 1. PD-L1 antibody (2 mg/kg) and SPD (2 mg/kg) were used. a) Tumor growth curve and survival curve are shown. b) The frequency of CD8^+ T cells among lymphocytes infiltrating into tumor (in CD45^+ gate) and the absolute number of CD8^+ T cells per mg tumor 13 days after tumor inoculation are shown. c) CD8^+ T cells were isolated from spleen cells on the same schedule as b) and cultured for 20 hours under the stimulation with CD3/CD28. Cell proliferation was examined by means of ^3H uptake. d) CD8^+ T cells were isolated from draining lymph nodes on the same schedule as b) and glycolytic pathway-derived or mitochondrial metabolism-derived ATP production was calculated by Seahorse. e) Spare respiratory capacity (SRC) was also calculated in the experiment (d).
It is known from mouse model experiments that the effect of PD-1 inhibitory antibody therapy decreases in aged mice due to their decreased immunity. […] CD8^+ T cells were isolated from draining lymph nodes 13 days after tumor inoculation and glycolytic pathway-derived or mitochondrial metabolism-derived ATP production was calculated by Seahorse. Spare respiratory capacity (SRC) was also calculated. […]

Assay [1] concerns CD44 high CD8+ T cells. Briefly: PI and Annexin apoptosis assay, CD44 high cells. The assay is classed as cell-based, mice. As to conditions: in the presence of SPD 0.2 μM. Here is the method:
FIG. 4 CD8^+ T cells were isolated from the spleen of mice without tumor inoculation, and further isolated into CD44^+ (CD44 high) and CD44^− (CD44 low) cell populations. a) CD44 low cells were simulated with CD3/CD28 antibody beads and SPD (0.2 μM). After 30 minutes, 1 hour, 2 hours and 72 hours, OCR was measured with a Seahorse analyzer. b) At the same time, total ATP production and glycolytic pathway-derived or mitochondrial activity-derived ATP production were calculated at 30-minute, 1-hour and 2-hour. c) CD44 low cells (2×10^5 cells) were stimulated with CD3/CD28 antibody beads and SPD (0.2 μM). After 24 hours, cell proliferation was examined by means of 3H uptake. d) Spare respiratory capacity (SRC) was calculated from the OCR measurement after 72 hours in a), and results with and without SPD were compared. e) CD44 low cells were stimulated with CD3/CD28 antibody beads and SPD (0.2 μM). After 24 hours, frequencies between apoptotic and viable cells were calculated by PI and Annexin staining. f-j) CD44 high cells were analyzed under the same conditions and by the same methods as described in a-e) above. […] All flow cytometry experiments were performed on FACS Canto II (BD Biosciences) and analyzed using FlowJo software (FLOWJO, LLC). […]

Another assay deals with CD44 low CD8+ T cells. Briefly: Observation of mitochondria under electron microscope, CD44 low cells. The assay is classed as cell-based, mice. As to conditions: SPD 0.2 μM, 1 hour. The procedure: (§1) FIG. 5 CD8^+ T cells were isolated from the spleen of mice without tumor inoculation, and further isolated into CD44^+ (CD44 high) and CD44^− (CD44 low) cell populations. a) CD44 low cells were simulated with CD3/CD28 antibody beads and SPD (0.2 μM). […] Protein expression levels after 1 hour and 2 hours were confirmed by western blotting with the respective indicated antibodies. As regards statistical analysis, t-test was used for comparison of two groups. * p<0.05, ** p<0.01, *** p<0.001, **** p<0.0001.
(§2) CD8^+ T cells (2×10^5) were stimulated with 0.2 μM spermidine for 1 hour. Then, cells were harvested, embedded in Ipgell (GenoStaff) and fixed with 4% paraformaldehyde and 2% glutaraldehyde. Images were taken with a transmission electron microscope (TEM). Mitochondrial size was determined with ImageJ software. As regards mitochondrial number, average numbers in single cell were determined with Prism software. Blind testing was used for observation and analysis of mitochondria.

Assay [2] concerns CD44 high CD8+ T cells. Nature of the assay: Observation of mitochondria under electron microscope, CD44 high cells. Type of assay: cell-based, mice. The note with it: SPD 0.2 μM, 1 hour. The procedure:
as §1, §2

The test system of assay [3] is draining lymph node CD8+ T cells. Nature of the assay: Mitochondria-related proteomics of draining lymph node CD8+ T cells of treated mice. Type of assay: in vivo. Here is the method: T cells were prepared by two methods. For in vivo analysis, 13 days after tumor inoculation and 3 days after the start of therapy, draining lymph nodes from 5 mice were pooled, followed by isolation of CD8^+ T cells. From the isolated CD8^+ T cells, three samples each consisting of 1×10^6 cells were prepared and used for analysis. For in vitro experiments, 2×10^5 CD8^+ T cells stimulated with 0.2 μM spermidine for 1 hour were used. For mass spectrometry analysis, a Tandem Mass Tag (TMT) system or a Data Independent Acquisition (DIA) system was used. In the analysis of in vivo CD8^+ T cells (FIG. 3), those proteins which increased by 1.5-fold or more or decreased by 0.6-fold or less were extracted.

`NCCCCNCCCN` [SPD, spermidine]: the “proliferative activation of spleen CD8+ T cells” value in the assay on CD8+ T cells is reported as “enhanced”. In the assay with CD44 high CD8+ T cells [1], the apoptotic cells entry is recorded as “decreased” and the viable cells entry is “increased; also recorded: significantly high”. For the same compound, in the assay on CD44 low CD8+ T cells, the mitochondrial size entry was “no change” and the structure of cristae result was “denser structures of cristae”. For the same compound, in the assay on CD44 high CD8+ T cells [2], the mitochondrial morphology result was “fusion of mitochondria”, the “number of mitochondria per cell” value was “decreased”, the size per mitochondrion result is “increased” and the structure of cristae entry was “damaged in structures”. Further, in assay [3] (combined therapy compared to PD-1 inhibition alone), the “levels of electron transport chain related proteins (Cytochrome, NADH dehydrogenase, ATPase)” value was “remarkably increased”. Also, in assay [3] (out of 203 proteins, combined therapy compared to PD-1 inhibition alone), the “number of mitochondria-related proteins whose level changed significantly” value worked out at 184. In addition, in assay [3] (proteins increased under combined therapy), the “pathway analysis: proteins associated with oxidative phosphorylation and metabolic pathways such as glycolysis” value is on record as “occupied top positions”.
